Assay results published in ChEMBL document CHEMBL1255246, “Systemic pharmacokinetics of rifaximin in volunteers with shigellosis” (Antimicrob Agents Chemother, 2008).

Key:
Assay type in all cases: ADME, organism-based
[1] = AUC (0 to last) in Shigella flexneri challenged human at […], po administered every 8 hrs for three days measured after third dose; parameters: route oral, time 0 - last; conditions: plasma
[2] = Tmax in Shigella flexneri challenged human at […], po administered every 8 hrs for three days measured after third dose; parameters: route oral; conditions: in vivo
[3] = AUC (0 to last) in Shigella flexneri challenged human at […], po administered every 8 hrs for three days measured after last dose; parameters: time 0 - last, route oral; conditions: plasma
[4] = Oral bioavailability in human at 200 mg three times a day for 3 days; conditions: in vivo
[5] = Drug level in healthy human urine at 400 mg single dose; conditions: read-out: Drug uptake
[6] = Drug level in healthy human feces at 400 mg single dose; conditions: faeces, read-out: Drug uptake
[7] = Cmax in Shigella flexneri challenged human at […], po administered every 8 hrs for three days measured after third dose; parameters: route oral; conditions: in vivo
[8] = Tmax in Shigella flexneri challenged human at […], po administered every 8 hrs for three days measured after last dose; parameters: route oral; conditions: in vivo
[9] = Cmax in Shigella flexneri challenged human at […], po administered every 8 hrs for three days measured after last dose; parameters: route oral; conditions: in vivo

**Q.** What does the source list for `CO[C@H]1/C=C/O[C@@]2(C)Oc3c(C)c(O)c4c(O)c(c5c(nc6cc(C)ccn65)c4c3C2=O)NC(=O)/C(C)=C\C=C\[C@H](C)[C@H](O)[C@@H](C)[C@@H](O)[C@@H](C)[C@H](OC(C)=O)[C@@H]1C` [RIFAXIMIN]?
**A.** AUC(0-t) at 8 h [1]: 6.95 ng·h/mL; Tmax [2]: 2.77 h; AUC(0-t) at 8 h [3]: 7.83 ng·h/mL; bioavailability [4]: < 0.4%; dose excreted [5]: 0.32%; dose excreted [6]: 97%; Cmax [7]: 1.63 ng/mL; Tmax [8]: 2.11 h; Cmax [9]: 1.23 ng/mL
